# Data: US20050222312A1, “Antioxidant and antimicrobial agents and methods of use thereof” (priority 2002, published 2005)
# Legend:
# [1] = tested on: forestomachs of rats; conditions: Nera et al., Toxicology 32:197-213 (1984); cited from earlier work
# [2] = tested on: Listeria monocytogenes; experiment: liquid culture growth inhibition assay; type: cell-based; conditions: all strains tested, 24 and 48 hrs
# Procedure: (§1) For these experiments, three strains of Listeria monocytogenes (CWD 95, CWD 246 and CWD 201), three strains of Escherichia coli O157:H7 (AR, AD 305, and AD 317), Salmonella typhimurium (clinical DT 104 isolate H3380), Salmonella enteritidis (clinical isolate H3527, phage type 13A) and Salmonella heidelberg (clinical isolate F5038BG1, Maryland outbreak) were obtained. All strains were stored at −70° C., in Trypticase soy broth containing 10% (v/v) glycerol. Thawed strains were subcultured three times in Trypticase soy broth containing 0.6% (w/v) yeast extract (TSB-YE) (Difco Laboratories, Detroit, Mich.) at 35° C., 18 to 24 h before use.
# (§2) For these experiments, sub-cultured bacteria (10^8 cfu Salmonella; 10^9 cfu Listeria monocytogenes and 10^9 cfu E. coli) were each added to culture tubes containing TSB-YE. Three strains of each bacterial species were used, and 1,2,3,4-tetrahydroxybenzene was added to concentrations ranging from 1.4 mM to 14 mM. Three culture tubes were used for each 1,2,3,4-tetrahydroxybenzene concentration. The samples were incubated at 35° C. and observation of growth was recorded at 24 and 48 hrs. Results were reported as the number or tubes positive or negative for growth at 24 h and 48 h.
# [3] = tested on: Salmonella cocktail; experiment: liquid culture growth inhibition assay; type: cell-based
# Procedure: as §1, §2
# [4] = tested on: Salmonella heidelberg; experiment: liquid culture growth inhibition assay; type: cell-based; conditions: all strains tested, 24 and 48 hrs
# Procedure: as §1, §2
# [5] = tested on: Salmonella typhimurium; experiment: liquid culture growth inhibition assay; type: cell-based; conditions: all strains tested, 24 and 48 hrs
# Procedure: as §1, §2
# [6] = tested on: Salmonella enteritidis; experiment: liquid culture growth inhibition assay; type: cell-based; conditions: all strains tested, 24 and 48 hrs
# Procedure: as §1, §2
# [7] = tested on: E. coli O157:H7; experiment: liquid culture growth inhibition assay; type: cell-based, Escherichia coli O157:H7; conditions: all strains tested, 24 and 48 hrs
# Procedure: as §1, §2
# [8] = antioxidant activity, peroxide value of lard; conditions: 0.01% w/w, 60° C., FIG. 2
# Procedure: (§3) Aliquots of corn oil stripped of endogenous antioxidants were mixed with either 1,2,3,4-tetrahydroxybenzene (OH-Bz), or with a known antioxidant chosen from propyl gallate (PG), tert-butylhydroquinone (TBHQ), and α-tocopherol (Toc). Each antioxidant was at a concentration of 0.01% w/w (i.e., 100 ppm). The mixtures (as well as controls) were maintained at 60° C. Samples of each mixture were removed at a series of time points over a period of 28 days, and the peroxide value of each sample was measured using standard laboratory techniques (FIG. 1). Similarly, aliquots of lard were mixed with either 1,2,3,4-tetrahydroxybenzene (OH-Bz), or with a known antioxidant chosen from propyl gallate (PG), tert-butylhydroquinone (TBHQ), and α-tocopherol (Toc). Each antioxidant was at a concentration of 0.01% w/w. The mixtures (as well as controls) were maintained at 60° C. Samples of each mixture were removed at a series of time points over a period of 26 days, and the peroxide value of each sample was measured using standard laboratory techniques (FIG. 2).
# [9] = tested on: Listeria monocytogenes; experiment: inhibition zone experiment (pour plate, filter disc); type: cell-based; conditions: 24 hrs, FIG. 3
# Procedure: as §1
# (§4) To test antimicrobial activity of 1,2,3,4-tetrahydroxybenzene, a pour plate technique was used in which 200 μl samples of subcultured bacteria (either […] colony forming units (CFU)/ml of Salmonella, 109 CFU/ml of L. monocytogenes or 10^9 CFU/ml of E. coli) were transferred to a Petri dish (100 mm×15 mm) to which 20 ml of Trypticase soy agar containing 0.6% (w/v) yeast extract (TSA-YE) was added. The contents of each Petri dish was then mixed by gently forming figure eights with the dish against the bench top. Separately, solutions of 1,2,3,4-tetrahydroxybenzene were prepared at the following concentrations: 1.4 M, 0.14 M, 0.014 M, 0.0014 M, and 0.00014 M. 16 mm filter discs comprising 1,2,3,4-tetrahydroxybenzene each then received 50 μl of a solution comprising one concentration of 1,2,3,4-tetrahydroxybenzene. A single 16 mm disc comprising 50 μl of one concentration of 1,2,3,4-tetrahydroxybenzene was then placed aseptically in the center of each Petri dish. The Petri dishes were then incubated at 35° C. Zones of growth inhibition were determined by observation at 24 hrs. All tests were run in triplicate and averaged.
# [10] = tested on: Escherichia coli; experiment: as above; type: cell-based; conditions: 24 hrs, FIG. 3
# Procedure: as §1, §4
# [11] = tested on: Salmonella typhimurium; experiment: as above; type: cell-based; conditions: 24 hrs, FIG. 3
# Procedure: as §1, §4
# [12] = antioxidant activity, peroxide value of corn oil; conditions: 0.01% w/w (100 ppm), 60° C., FIG. 1
# Procedure: as §3
# [13] = 50 μl at 1.4 M or 0.14 M on 16 mm filter disc
# [14] = concentrations lower than 0.14 M, 16 mm filter disc
Structure (SMILES),carcinogenicity [1],concentration at which complete inhibition occurred [2],concentration at which complete inhibition occurred [3],concentration at which complete inhibition occurred [4],concentration at which complete inhibition occurred [5],concentration at which complete inhibition occurred [6],concentration at which complete inhibition occurred [7],antioxidant activity (peroxide value) ([8]; 26 days),period over which antioxidant activity is maintained [8],"zones of growth inhibition [9, 13]","zones of growth inhibition [9, 14]","zones of growth inhibition [10, 13]","zones of growth inhibition [10, 14]","zones of growth inhibition [11, 13]","zones of growth inhibition [11, 14]",antioxidant activity (peroxide value) ([12]; 28 days),period over which antioxidant activity is maintained [12]
"COc1ccc(O)c(C(C)(C)C)c1 [BHA, butylated hydroxyanisole]",implicated as a carcinogen promoting formation of tumors in the forestomachs of rats,–,–,–,–,–,–,–,–,–,–,–,–,–,–,–,–
"Oc1ccc(O)c(O)c1O [THB, 1,2,3,4-tetrahydroxybenzene]",–,≥ 5.6 mM,≥ 5.6 mM,≥ 5.6 mM,≥ 5.6 mM,≥ 5.6 mM,≥ 5.6 mM,"highly effective antioxidant, equal or superior to PG, TBHQ, PG, and α-tocopherol",at least 26 days,led to appearance of zones of inhibition,did not form zones of inhibition greater than the diameter of the filter,led to appearance of zones of inhibition,did not form zones of inhibition greater than the diameter of the filter,led to appearance of zones of inhibition,did not form zones of inhibition greater than the diameter of the filter,"highly effective antioxidant, equal or superior to PG, TBHQ, PG, and α-tocopherol",at least 26 days
